Data taken from patent publication US8691859B2 (priority 2005, dated 2014).
Converted amounts (≈) assume the structure as drawn. Like-named read-outs stand apart in the source and are kept apart here.

Experiments:
[1] = biological target: botulinum neurotoxin serotype A light chain (Clostridium botulinum, UniProt P0DPI0); type: biochemical, Clostridium botulinium
[2] = tested on: B. anthracis GFP sterne spores; experiment: microbe, parasite or virus in culture; type: cell-based; conditions: Bacillus anthracis
[3] = tested on: B. anthracis GFP sterne vegetative cells; experiment: microbe, parasite or virus in culture; type: cell-based; conditions: Bacillus anthracis, read-out: MIC B. anthracis vegetative cells
anthrax lethal factor = anthrax lethal factor (Bacillus anthracis, UniProt P15917); type: biochemical
Sequence of anthrax lethal factor (P15917 34-809 limits assumed): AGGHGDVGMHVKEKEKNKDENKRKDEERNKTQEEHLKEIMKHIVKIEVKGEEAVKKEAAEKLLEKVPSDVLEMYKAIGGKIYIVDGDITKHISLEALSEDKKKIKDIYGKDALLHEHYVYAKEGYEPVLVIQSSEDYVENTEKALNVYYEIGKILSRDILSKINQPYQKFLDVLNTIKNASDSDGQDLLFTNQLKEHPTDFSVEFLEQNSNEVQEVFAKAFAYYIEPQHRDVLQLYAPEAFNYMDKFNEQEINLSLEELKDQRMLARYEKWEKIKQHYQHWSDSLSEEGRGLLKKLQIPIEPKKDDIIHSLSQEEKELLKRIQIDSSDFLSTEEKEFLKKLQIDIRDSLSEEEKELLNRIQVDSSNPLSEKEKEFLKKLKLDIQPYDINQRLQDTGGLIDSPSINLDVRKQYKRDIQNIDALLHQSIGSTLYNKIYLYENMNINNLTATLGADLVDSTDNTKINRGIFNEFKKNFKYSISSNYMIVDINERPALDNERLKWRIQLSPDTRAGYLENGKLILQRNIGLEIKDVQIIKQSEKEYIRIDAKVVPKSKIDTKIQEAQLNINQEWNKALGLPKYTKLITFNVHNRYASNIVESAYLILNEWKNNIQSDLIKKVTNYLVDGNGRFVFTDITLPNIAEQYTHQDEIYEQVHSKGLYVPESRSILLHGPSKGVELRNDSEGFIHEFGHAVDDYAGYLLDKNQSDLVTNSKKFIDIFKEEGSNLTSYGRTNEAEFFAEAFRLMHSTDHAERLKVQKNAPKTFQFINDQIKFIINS

[4] = tested on: Burkholderia pseudomallei; experiment: microbe, parasite or virus in culture; type: cell-based
B. cepacia = experiment: microbe, parasite or virus in culture; type: cell-based; conditions: Burkholderia cepacia
E. feacalis = experiment: organism not typed; type: cell-based
B. pumilus = experiment: microbe, parasite or virus in culture; type: cell-based; conditions: Bacillus pumilus
B. subtilis = experiment: microbe, parasite or virus in culture; type: cell-based; conditions: Bacillus subtilis
B. anthracis Ames = experiment: microbe, parasite or virus in culture; type: cell-based; conditions: Bacillus anthracis
Ames spores [5] = experiment: microbe, parasite or virus in culture; type: cell-based, B. anthracis; conditions: Bacillus anthracis
E. coli = experiment: microbe, parasite or virus in culture; type: cell-based; conditions: Escherichia coli
[6] = tested on: Methicillin resistant S. aureus; experiment: microbe, parasite or virus in culture; type: cell-based; conditions: Staphylococcus aureus
P. aeruginosa PAO1 = experiment: microbe, parasite or virus in culture; type: cell-based; conditions: Pseudomonas aeruginosa
B. megaterium = experiment: microbe, parasite or virus in culture; type: cell-based; conditions: Priestia megaterium
B. licheniformis = experiment: microbe, parasite or virus in culture; type: cell-based; conditions: Bacillus licheniformis
Ames spores [7] = experiment: microbe, parasite or virus in culture; type: cell-based, B. anthracis; conditions: Bacillus anthracis; remark: listed apart in the source
K. pneumoniae = experiment: microbe, parasite or virus in culture; type: cell-based; conditions: Klebsiella pneumoniae
Burkholderia mallei = experiment: microbe, parasite or virus in culture; type: cell-based
B. brevis = experiment: microbe, parasite or virus in culture; type: cell-based; conditions: Brevibacillus brevis
Sterne spores = type: cell-based, B. anthracis
[8] = tested on: Burkholderia thailandensis; experiment: microbe, parasite or virus in culture; type: cell-based
S. aureus = experiment: microbe, parasite or virus in culture; type: cell-based; conditions: Staphylococcus aureus
Sterne GFP spores = type: cell-based, B. anthracis
Y. pestis = experiment: microbe, parasite or virus in culture; type: cell-based; conditions: Yersinia pestis
B. vollum [9] = experiment: organism not typed; type: cell-based
B. vollum [10] = experiment: organism not typed; type: cell-based; remark: listed apart in the source
[11] = read-out: MIC B. anthracis spores

Sequence of botulinum neurotoxin serotype A light chain (P0DPI0 2-448 limits assumed): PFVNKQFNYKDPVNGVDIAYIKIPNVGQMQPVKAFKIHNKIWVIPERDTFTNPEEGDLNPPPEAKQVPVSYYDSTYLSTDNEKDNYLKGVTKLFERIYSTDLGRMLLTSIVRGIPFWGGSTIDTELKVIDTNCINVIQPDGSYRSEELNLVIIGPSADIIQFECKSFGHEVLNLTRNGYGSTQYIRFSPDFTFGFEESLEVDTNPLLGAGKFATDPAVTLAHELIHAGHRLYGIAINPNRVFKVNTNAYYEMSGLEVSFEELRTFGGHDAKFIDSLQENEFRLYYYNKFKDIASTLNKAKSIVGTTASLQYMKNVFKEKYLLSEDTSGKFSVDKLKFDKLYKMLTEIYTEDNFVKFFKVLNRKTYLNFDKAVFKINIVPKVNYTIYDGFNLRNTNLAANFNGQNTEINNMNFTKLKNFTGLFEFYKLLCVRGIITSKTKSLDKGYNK

| SMILES | inhibition of botulinum neurotoxin serotype A light chain metalloprotease activity [1] | MIC [2, 11] | MIC [3] | inhibition of the protease activity of anthrax lethal factor (anthrax lethal factor) | MIC [4] | MIC (B. cepacia) | MIC (E. feacalis) | MIC (B. pumilus) | MIC (B. subtilis) | MIC (B. anthracis Ames) | MBC (Ames spores [5]) | MIC (E. coli) | MIC [6] | MIC (P. aeruginosa PAO1) | MIC (B. megaterium) | MIC (B. licheniformis) | MIC (Ames spores [7]) | MIC (K. pneumoniae) | MIC (Burkholderia mallei) | MIC (B. brevis) | also measured |
| --- | --- | --- | --- | --- | --- | --- | --- | --- | --- | --- | --- | --- | --- | --- | --- | --- | --- | --- | --- | --- | --- |
| N=C(N)c1ccc2oc(/C=C/C=C/C=C/c3cc4cc(C(=N)N)ccc4o3)cc2c1 [NSC 308574, 2-[(1E,3E,5E)-6-(5-carbamimidoylbenzofuran-2-yl)hexa-1,3,5-trienyl]benzofuran-5-carboximidamide] | inhibit | 2.35 µg/mL (≈ 5.91 µM) | 9.38 µg/mL (≈ 23.7 µM) | inhibit | – | – | – | – | – | – | – | – | – | – | – | – | – | – | – | – | – |
| c1cc2cc(-c3ccc(-c4cc5ccc(C6=NCCN6)cc5[nH]4)cc3)[nH]c2cc1C1=NCCN1 [NSC 317881, 6-(4,5-dihydro-1H-imidazol-2-yl)-2-[4-[6-(4,5-dihydro-1H-imidazol-2-yl)-1H-indol-2-yl]phenyl]-1H-indole] | – | 0.162 µg/mL (≈ 0.364 µM) | 0.646 µg/mL (≈ 1.45 µM) | inhibit | > 20.7 µg/mL | > 20.7 µg/mL | 0.162 µg/mL (≈ 0.364 µM) | 0.021 µg/mL (≈ 0.0472 µM) | 0.162 µg/mL (≈ 0.364 µM) | 0.32 µg/mL (≈ 0.72 µM) | 0.162 µg/mL (≈ 0.364 µM) | 0.646 µg/mL (≈ 1.45 µM) | 0.323 µg/mL (≈ 0.727 µM) | 0.323 µg/mL (≈ 0.727 µM) | 0.323 µg/mL (≈ 0.727 µM) | 0.646 µg/mL (≈ 1.45 µM) | 0.162 µg/mL (≈ 0.364 µM) | 10.3 µg/mL (≈ 23.3 µM) | 10.3 µg/mL (≈ 23.3 µM) | 0.646 µg/mL (≈ 1.45 µM) | MIC ([2]; 22 h, read-out: MIC (figure legend)): 0.084 µg/mL (≈ 0.189 µM); effect on spore germination (Sterne spores): does not have an effect on spore germination; time after contact with germination medium by which treated spores were killed by heat (Sterne spores): ≤ 15 min; MIC [8]: 20.7 µg/mL (≈ 46.5 µM); MIC (S. aureus): 0.323 µg/mL (≈ 0.727 µM); reduction in cfu as compared to the DMSO control (Sterne GFP spores): considerable reduction; treatment time after which no viable spores were detected (Sterne GFP spores): ~4 h; MIC (Y. pestis): 20.7 µg/mL (≈ 46.5 µM) |
| NC(N)=NN=Cc1ccc2cc(-c3ccc(/C=N/N=C(N)N)cc3)sc2c1 [NSC 341909, 2-[[2-[4-[(E)-(diaminomethylidenehydrazinylidene)methyl]-phenyl]benzothiophen-6-yl]methylideneamino]guanidine] | inhibit | 4.51 µg/mL (≈ 11.9 µM) | 18 µg/mL (≈ 47.7 µM) | inhibit | – | – | – | – | – | – | – | – | – | – | – | – | – | – | – | – | – |
| c1cc2cc(-c3ccc4cc(-c5ccc6oc(C7=NCCN7)cc6c5)[nH]c4c3)[nH]c2cc1C1=NCCN1 [NSC 369718, 6-(4,5-dihydro-1H-imidazol-2-yl)-2-[2-[2-(4,5-dihydro-1H-imidazol-2-yl)benzofuran-5-yl]-1H-indol-6-yl]-1H-indole] | – | 0.348 µg/mL (≈ 0.718 µM) | 0.696 µg/mL (≈ 1.44 µM) | – | 2.79 µg/mL (≈ 5.75 µM) | 22.3 µg/mL (≈ 46 µM) | 0.696 µg/mL (≈ 1.44 µM) | 0.348 µg/mL (≈ 0.718 µM) | 0.348 µg/mL (≈ 0.718 µM) | 1.39 µg/mL (≈ 2.87 µM) | 0.174 µg/mL (≈ 0.359 µM) | 1.39 µg/mL (≈ 2.87 µM) | 2.79 µg/mL (≈ 5.75 µM) | 1.39 µg/mL (≈ 2.87 µM) | 0.348 µg/mL (≈ 0.718 µM) | 1.39 µg/mL (≈ 2.87 µM) | 0.174 µg/mL (≈ 0.359 µM) | 5.57 µg/mL (≈ 11.5 µM) | 11.1 µg/mL (≈ 23 µM) | 0.174 µg/mL (≈ 0.359 µM) | MBC (B. vollum [9]): 0.348 µg/mL (≈ 0.718 µM); MIC (B. vollum [10]): 0.348 µg/mL (≈ 0.718 µM); effect on spore germination (Sterne spores): results to those of NSC 317881 were obtained; MIC [8]: 2.78 µg/mL (≈ 5.75 µM); MIC (S. aureus): 0.696 µg/mL (≈ 1.44 µM); MIC (Y. pestis): 1.39 µg/mL (≈ 2.87 µM) |
